From US6835720B2, “Compounds having antiviral activity” (Nissin Food Products Co., Ltd., priority 1996, dated 2004) come the findings set out here.

In one data set the test system is AIDS virus (HIV-1, IIIb). The data set is classed as cell-based. As to conditions: HIV-1 IIIb in H9 cells, p24 in culture supernatant by ELISA on the 6th day. The protocol: (§1) Samples of various concentrations (25 μl) are distributed into a 24-well microplate, immediately added with human T cells (H9 cell line, 1.2×10^5/ml) (1 ml), covered, and incubated at 37° C. for 1 h. Then, AIDS virus (HIV-1, IIIb, 100 TCID 50) (25 μl) is added to each well and thoroughly mixed, covered again, and incubated under the CO2 atmosphere at 37° C. for 3 days. On the fourth day, aliquots (200 μl) of the culture medium from each well are transferred into a fresh microplate. The growth medium (500 μl) is added to each well, and further incubated for 2 days.
(§2) On the 6th day, aliquots (90 μl) of the culture supernatant are withdrawn, and assayed the amount of p24, a constituent of HIV-1, by ELISA method using the anti-p24 antibody to assess the growth of said virus. Also, using the remaining cell culture suspension (100 μl), viable cells are counted by the MTT method. Experimental values are expressed as the ratios (%) to the negative control value (measured using the solvent to dissolve test compounds as the sample) to represent the anti-HIV activity and cytotoxicity. Then, for the unified representation of the anti-HIV activity and cytotoxicity, the concentrations of test compounds at their 50% values are obtained from the activity-concentration curves and the cytotoxicity-concentration, and represented as IC50 and CC50, respectively.
For orientation: ELISA stands for enzyme-linked immunosorbent assay.

The test system of data set [1] is human T cells (H9 cell line). The data set is described as follows: Cytotoxicity, viable cells counted by the MTT method. The data set is classed as cell-based. The protocol: as §1, §2
A general note: Formazan colour is commonly taken as a measure of viable cells.

A further data set relates to human plasma. Nature of the data set: Anti-coagulation activity in human plasma. Particulars: calcium chloride, 37° C. for 30 min, judged with the naked eye.
A further data set deals with mice. Nature of the data set: Toxicity study, intravenous administration to mice. As to conditions: intravenously administered. The data set is classed as in vivo. As for the experimental part: Compounds were intravenously administered to mice, and LD50s (mg/kg) were determined.
Data set [2] relates to Herpes simplex II virus (HSVII). Nature of the data set: Plaque reduction assay, Herpes simplex II virus. The data set is classed as cell-based. The protocol:
(§3) Antiviral activity against human Parainfluenza virus, Respiratory syncytial virus (RSV) and Herpes simplex II virus (HSVII) was determined by the plaque reduction assay, while that against Feline immunodeficiency virus (FIV) and Feline leukemia virus (FeLV) by the reverse transcriptase assay and ELISA, respectively.
(§4) Each virus was obtained from ATCC. As host cells, VERO cells were used for Parainfluenza virus, and HEP2 cells for other viruses.
(§5) To fibroblasts growing in a T150 flask were added virus-infected cells, and the cells were incubated until they reached 60-80% infection. Cells were trypsinized, recovered and used as the virus stock. As the cell culture medium was used E-MEM containing 2-5% FBS, 100 U/ml Penicillin, 2.5 μg/ml Aniphotericin and 10 μg/ml Gentamycin.
(§6) Compound related to Example 29 was appropriately diluted to the concentrations of 500, 100, 50, 10 and 5 μg/ml with the culture medium or methyl cellulose. As the reference drug for HSV II was used Acyclovir. […]
(§7) Cells were cultured at 36-38° C. under the 5-7% CO2 atmosphere, and examined for the appearance of plaques under microscope. […] Number of plaques counted in the sample well was compared with that in the virus control well, and the decrease in the number of plaques was used to express the antiviral activity.

In data set [3] the test system is Respiratory syncytial virus (RSV). Nature of the data set: Plaque reduction assay, Respiratory syncytial virus. It is filed as cell-based. Particulars: HEP2 cells. As for the experimental part: as §3, §4, §5, §6, §7
The subject of data set [4] is human Parainfluenza virus. Nature of the data set: Plaque reduction assay, Parainfluenza virus. It is filed as cell-based. Particulars: VERO cells. As for the experimental part: as §3, §4, §5, §6, §7
Background: In a plaque reduction assay, fewer plaques than in the control indicate reduced infectivity or spread.

Data set [5] relates to Feline immunodeficiency virus (FIV). The data set is described as follows: Reverse transcriptase assay, Feline immunodeficiency virus. As to conditions: CRFK cells. The data set is classed as cell-based. The protocol:
as §3
(§8) Each virus was obtained from ATCC. FIV was cultured with CRFK cells in Eagle's balanced salt medium containing 10% FBS, and the supernatant was used as the virus stock. As FeLV was used ATCC VR-717.
(§9) Compound related to Example 29 was diluted with the medium to similar concentrations described above.
(§10) For each single strain of virus, the assay was performed in the following combinations of conditions.
(§11) After CRFL cells were cultured in monolayer in 96-well microplates, the supernatant was discarded. […]
(§12) Using supernatants as the sample from the cell control well, the virus control well and the test well, the reverse transcriptase of FIV or FeLV antigen contained therein were quantitated using assay kits from Amersham LIFESCIENCE and Synbiotics, respectively. Anti-viral activity was expressed as that ratio (%) of the value of the test well to that of the virus control well after both values were subtracted with the value of the cell control well, respectively.

Data set [6] relates to Feline leukemia virus (FeLV). Nature of the data set: FeLV antigen ELISA, Feline leukemia virus. The data set is classed as cell-based. As for the experimental part: as §3, §8, §9, §10, §11, §12

Broadly, the IC50 is the concentration at which inhibition is half-maximal. What is called CC50 is the concentration that lowers cell viability or growth by half. High values mean lower toxicity to the cells, low ones greater toxicity to the cells. Usually LD50 stands for the dose at which mortality reaches 50%. Read a low LD50 as a more toxic substance. In the case of `CCCCCCCCCCCCCCCCCCCCCCOCC(COC1(C(=O)[O-])CC(OS(=O)(=O)[O-])C(NC(C)=O)C(C(OS(=O)(=O)[O-])C(COS(=O)(=O)[O-])OS(=O)(=O)[O-])O1)OCCCCCCCCCCCCCCCCCCCCCC.[Na+].[Na+].[Na+].[Na+].[Na+]` [Example 13, 3-O-[Sodium{5-acetamido-3,5-dideoxy-4,7,8,9-tetra-O-(sodiumoxysulfonyl)-D-glycero-β-D-galacto-2-nonulopyranosyl}onate]-1,2-di-O-docosyl-Sn-glycerol], in the data set on AIDS virus (HIV-1, IIIb), the midpoint of inhibition, the IC50, lay at 1600 nM. The molecule also displayed a CC50 in [1] greater than 200 µM. Besides, the “Minimum concentration exhibiting anticoagulant action” value in the data set with human plasma was 1200 µM. In addition, the “LD50” value in the data set on mice is recorded as 2000 mg/kg.

Take `CCCCCCCCCCCCCCCCCCCCCCOC[C@H](CO[C@]1(C(=O)[O-])C[C@H](OS(=O)(=O)[O-])[C@@H](NC(C)=O)[C@H]([C@H](OS(=O)(=O)[O-])[C@@H](COS(=O)(=O)[O-])OS(=O)(=O)[O-])O1)OCCCCCCCCCCCCCCCCCCCCCC.[Na+].[Na+].[Na+].[Na+].[Na+]` [Example 12, 3-O-[Sodium{5-acetamido-3,5-dideoxy-4,7,8,9-tetra-O-(sodiumoxysulfonyl)-D-glycero-α-D-galacto-2-nonulopyranosyl}onate]-1,2-di-O-docosyl-Sn-glycerol]: in the data set with AIDS virus (HIV-1, IIIb), 800 nM corresponded to half-maximal inhibition (IC50). This molecule gave a CC50 in data set [1] greater than 200 µM. Further, in the data set on human plasma, the “Minimum concentration exhibiting anticoagulant action” value was found to be 900 µM. The “LD50” value in the data set on mice amounted to 2000 mg/kg.

Consider `CCCCCCCCCCCCCCCCCCCCCCOCC(C)(COCCCCCCCCCCCCCCCCCCCCCC)COC1(C(=O)[O-])CC(OS(=O)(=O)[O-])C(NC(C)=O)C(C(OS(=O)(=O)[O-])C(COS(=O)(=O)[O-])OS(=O)(=O)[O-])O1.[Na+].[Na+].[Na+].[Na+].[Na+]` [Example 29, Sodium[2,2-bis(docosyloxymethyl)propyl 5-acetamido-3,5-dideoxy-4,7,8,9-tetra-O-(sodiumoxysulfonyl)-D-glycero-α-D-galacto-2-nonulopyranosid]onate], for which the IC50 worked out at 1600 nM with AIDS virus (HIV-1, IIIb); 45.2 µM in data set [2] (HEP2 cells); 5.1 µM in [3]; 37.6 µM in data set [4]; 4.5 µM in [5]; 58.3 µM in [6]. The same molecule came in with a half-maximal cytotoxic concentration (CC50) in data set [1] greater than 20 µM. Besides, the “Minimum concentration exhibiting anticoagulant action” value in the data set on human plasma turned out to be 900 µM. Also, the “LD50” value with mice stood at 2000 mg/kg.

With Dextran sulfate [reference compound], in the data set with human plasma, the “Minimum concentration exhibiting anticoagulant action” value is 0.5 µM.

The molecule `CCCCCCCCCCCCCCCCCCCCCC(=O)OCC(COC1(C(=O)O)CC(OS(=O)(=O)O)C(NC(C)=O)C(C(OS(=O)(=O)O)C(COS(=O)(=O)O)OS(=O)(=O)O)O1)OC(=O)CCCCCCCCCCCCCCCCCCCCC` [Example 38, 3-O-[Sodium{5-acetamido-3,5-dideoxy-4,7,8,9-tretra-O-(sodiumoxysulfonyl)-D-glycero-α-D-galacto-2-nonulopyranosyl}onate]-1,2-di-O-docosanoyl-Sn-glycerol] returned an IC50 in the data set on AIDS virus (HIV-1, IIIb) of 2500 nM. The molecule also displayed a CC50 in data set [1] greater than 200 µM.

For the molecule `CCCCCCCCCCOCC(COC1(C(=O)O)CC(OS(=O)(=O)O)C(NC(C)=O)C(C(OS(=O)(=O)O)C(COS(=O)(=O)O)OS(=O)(=O)O)O1)OCCCCCCCCCC` [Example 5, 3-O-[Sodium{5-acetamido-3,5-dideoxy-4,7,8,9-tetra-O-(sodiumoxysulfonyl)-D-glycero-α-D-galacto-2-nonulopyranosyl}onate]-1,2-di-O-decyl-Sn-glycerol], the concentration for half-maximal inhibition (IC50) in the data set on AIDS virus (HIV-1, IIIb) stood at 46000 nM. Further, the CC50 in [1] is greater than 200 µM.

In data set [2] (HEp-2, HEP2 cells), `Nc1nc2c(ncn2COCCO)c(=O)[nH]1` [Acyclovir, reference compound] registered an IC50 of 21.6 µM.

`CCCCCCCCCCCCCCOCC(COC1(C(=O)O)CC(OS(=O)(=O)O)C(NC(C)=O)C(C(OS(=O)(=O)O)C(COS(=O)(=O)O)OS(=O)(=O)O)O1)OCCCCCCCCCCCCCC` [Example 8, 3-O-[Sodium{5-acetamido-3,5-dideoxy-4,7,8,9-tetra-O-(sodiumoxysulfonyl)-D-glycerol-β-D-galacto-2-nonulopyranosyl}ornate]-1,2-di-O-tetradecyl-Sn-glycerol] showed an IC50 with AIDS virus (HIV-1, IIIb) of 15000 nM. Further, in [1], the CC50 was greater than 200 µM.

For `CCCCCCCCCCCCCCCCCCOCC(COC1(C(=O)O)CC(OS(=O)(=O)O)C(NC(C)=O)C(C(OS(=O)(=O)O)C(COS(=O)(=O)O)OS(=O)(=O)O)O1)OCCCCCCCCCCCCCCCCCC` [Example 9, 3-O-[Sodium{5-acetamido-3,5-dideoxy-4,7,8,9-tetra-O-(sodiumoxysulfonyl)-D-glycerol-α-D-galacto-2-nonulopyranosyl)onate]-1,2-di-O-octadecyl-Sn-glycerol], the half-maximal inhibitory concentration (IC50) in the data set on AIDS virus (HIV-1, IIIb) turned out to be 3800 nM. In data set [1], the cytotoxic concentration (CC50) was greater than 200 µM.
